Test results as given in article PMC3059195 (Journal of medicinal chemistry, 2010).
Read-outs that look alike come from different tables or passages of the source.

Assays:
PPC-1 xenograft tumors = settings: for tumor response compared with control group in first week: i.p. three times in first week at 50 mg/kg
[1] = In vitro plasma stability; format: in vitro ADME
primary CLL cells = test: Annexin-V apoptosis assay, primary CLL cells; format: cell-based, human; settings: one day Annexin-V apoptosis assay
[2] = system: B6-Bcl-2 transgenic mice (B-cells overexpress human Bcl-2); test: B6-Bcl-2 transgenic mouse spleen weight study; settings: for tolerability / toxicity of treated mice: 60 μmol/kg i.p., single injection; for in vivo activity compared to 6a: dose of 60 μmol/kg (Figure 3A); for tolerability of treated mice: i.p. at 30 μmol/kg
[3] = administered orally; cited from earlier work
[4] = system: B6-Bcl-2 transgenic mice (B-cells overexpress human Bcl-2); settings: ip, 60 umol/kg
Bcl-XL = Bcl-XL (Homo sapiens, UniProt Q07817); test: 2D [15N,1H]-HSQC binding to 15N-labeled Bcl-XL; settings: ligand/protein ratio of 1:1
GST–Bcl-XL ΔTM protein = GST–Bcl-XL ΔTM protein (Homo sapiens, UniProt Q07817); test: Fluorescence polarization assay; format: binding
BP3 cell line = test: Annexin V-FITC and propidium iodide apoptosis assay, BP3

Bcl-XL, sequence (Q07817 whole entry): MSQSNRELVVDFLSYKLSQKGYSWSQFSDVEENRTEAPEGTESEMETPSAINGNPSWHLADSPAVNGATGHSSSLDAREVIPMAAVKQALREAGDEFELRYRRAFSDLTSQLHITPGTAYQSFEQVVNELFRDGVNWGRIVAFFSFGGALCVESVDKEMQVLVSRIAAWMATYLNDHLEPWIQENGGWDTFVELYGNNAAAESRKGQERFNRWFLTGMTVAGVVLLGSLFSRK
GST–Bcl-XL ΔTM protein, sequence (Q07817 1-211 limits assumed, stated change not applied): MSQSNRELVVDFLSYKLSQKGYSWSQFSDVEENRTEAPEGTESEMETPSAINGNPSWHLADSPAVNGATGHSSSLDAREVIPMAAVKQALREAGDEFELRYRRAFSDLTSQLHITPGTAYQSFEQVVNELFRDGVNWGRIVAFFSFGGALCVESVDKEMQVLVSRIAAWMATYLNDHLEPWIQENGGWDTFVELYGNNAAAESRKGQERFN

## Cc1cc2c(C(C)C)c(O)c(O)c(C=O)c2c(O)c1-c1c(C)cc2c(C(C)C)c(O)c(O)c(C=O)c2c1O [Compound 1, 1,1′,6,6′,7,7′-Hexahydroxy-5,5′-diisopropyl-3,3′-dimethyl-2,2′-binaphthyl-8,8′-dicarboxaldehyde]
PPC-1 xenograft tumors; 25 mg/kg, i.p.
  survival of treated mice in first week: died

## CC1=C(C2=C(C)C(=O)c3c(cc(O)c(O)c3C(C)C)C2=O)C(=O)c2cc(O)c(O)c(C(C)C)c2C1=O [Compound 6a, 6,6′,7,7′-tetrahydroxy-5,5′-diisopropyl-3,3′-dimethyl-2,2′-binaphthyl-1,1′,4,4′-tetraone]
PPC-1 xenograft tumors; 50 mg/kg i.p. three times in first week
  weight loss in first week: ~ 5%
PPC-1 xenograft tumors
  tumor response compared with control group in first week: strong tumor regression
[1]
  degraded after 1 h incubation in rat plasma preparations (second statement): 23%
Primary CLL cells
  LD50 primary CLL sample (first of two, Figure 2D): > 30 µM
  LD50 primary CLL sample (second of two, Supplementary 3B): > 30 µM
  LD50 primary CLL samples (Supplementary Figure 3A): > 30 µM
[2]; 60 μmol/kg ip, maximum spleen shrinkage no more than 50%
  percent of maximum reduction in spleen weight (biological activity): 40%
[3]
  maximum tolerated dose (MTD): above 240 mg/kg

## CC1=C(C2=C(C)C(=O)c3c(cc(O)c(O)c3CC(C)C)C2=O)C(=O)c2cc(O)c(O)c(CC(C)C)c2C1=O [Compound 6b, 6,6′,7,7′-tetrahydroxy-5,5′-diisobutyl-3,3′-dimethyl-2,2′-binaphthyl-1,1′,4,4′-tetraone]
[4]
  percent of maximum reduction in spleen weight (biological activity): 60-80%
  spleen weight reduction: 30-40%
[2]
  tolerability / toxicity of treated mice: no observed toxicity
  in vivo activity compared to 6a: superior

## CC1=C(C2=C(C)C(=O)c3c(cc(O)c(O)c3CC3CCCC3)C2=O)C(=O)c2cc(O)c(O)c(CC3CCCC3)c2C1=O [Compound 6c, 5,5′-bis(cyclopentylmethyl)-6,6′,7,7′-tetrahydroxy-3,3′-dimethyl-2,2′-binaphthyl-1,1′,4,4′-tetraone]
Primary CLL cells
  LD50 primary CLL samples (Supplementary Figure 3A): 6.5 µM

## CC1=C(C2=C(C)C(=O)c3c(cc(O)c(O)c3CCC3CCCCC3)C2=O)C(=O)c2cc(O)c(O)c(CCC3CCCCC3)c2C1=O [Compound 6d, 5,5′-bis(2-cyclohexylethyl)-6,6′,7,7′-tetrahydroxy-3,3′-dimethyl-2,2′-binaphthyl-1,1′,4,4′-tetraone]
[2]
  tolerability / toxicity of treated mice: no observed toxicity
  in vivo activity compared to 6a: superior

## CC1=C(C2=C(C)C(=O)c3c(cc(O)c(O)c3CCc3ccc(C)cc3)C2=O)C(=O)c2cc(O)c(O)c(CCc3ccc(C)cc3)c2C1=O [Compound 6f, 6,6′,7,7′-tetrahydroxy-3,3′-dimethyl-5,5′-bis(4-methylphenethyl)-2,2′-binaphthyl-1,1′,4,4′-tetraone]
Bcl-XL
  binding to Bcl-XL by 2D [15N,1H]-HSQC, qualitative: strong binding
PPC-1 xenograft tumors
  tumor response compared with control group in first week: strong tumor regression
[1]
  degraded after 1 h incubation in rat plasma preparations (second statement): 14%
Primary CLL cells
  LD50 primary CLL sample (second of two, Supplementary 3B): 15 µM
[2]
  tolerability / toxicity of treated mice: no observed toxicity
  in vivo activity compared to 6a: superior
[2]; groups of seven mice, 60 μmol/kg
  signs of toxicity: no evident signs of toxicity

## CC1=C(C2=C(C)C(=O)c3c(cc(O)c(O)c3Cc3ccccc3)C2=O)C(=O)c2cc(O)c(O)c(Cc3ccccc3)c2C1=O [Compound 6i, 5,5′-dibenzyl-6,6′,7,7′-tetrahydroxy-3,3′-dimethyl-2,2′-binaphthyl-1,1′,4,4′-tetraone]
Bcl-XL
  binding to Bcl-XL by 2D [15N,1H]-HSQC, qualitative: strong binding
PPC-1 xenograft tumors; mouse, in vivo
  survival of treated mice in first week: died
[1]
  degraded after 1 h incubation in rat plasma preparations (second statement): 5%
[2]
  tolerability / toxicity of treated mice: died
  tolerability of treated mice: well tolerated

## CC1=C(C2=C(C)C(=O)c3c(cc(O)c(O)c3Cc3ccc(Cl)cc3)C2=O)C(=O)c2cc(O)c(O)c(Cc3ccc(Cl)cc3)c2C1=O [Compound 6l, 5,5′-bis(4-chlorobenzyl)-6,6′,7,7′-tetrahydroxy-3,3′-dimethyl-2,2′-binaphthyl-1,1′,4,4′-tetraone]
[2]
  tolerability / toxicity of treated mice: died
  tolerability of treated mice: well tolerated

## CC1=C(C2=C(C)C(=O)c3c(cc(O)c(O)c3Cc3ccc(-c4ccccc4)cc3)C2=O)C(=O)c2cc(O)c(O)c(Cc3ccc(-c4ccccc4)cc3)c2C1=O [Compound 6m, 5,5′-bis(biphenyl-4-ylmethyl)-6,6′,7,7′-tetrahydroxy-3,3′-dimethyl-2,2′-binaphthyl-1,1′,4,4′-tetraone]
GST–Bcl-XL ΔTM protein
  IC50: 160 to 630 nM

## CC1=C(C2=C(C)C(=O)c3c(cc(O)c(O)c3C(=O)NCC(C)c3ccccc3)C2=O)C(=O)c2cc(O)c(O)c(C(=O)NCC(C)c3ccccc3)c2C1=O (stereo not shown) [Compound 8a, 6,6′,7,7′-Tetrahydroxy-3,3′-dimethyl-1,1′,4,4′-tetraoxo-N^5,N^5′-bis(2-phenylpropyl)-1,1′,4,4′-tetrahydro-2,2′-binaphthyl-5,5′-dicarboxamide]
Bcl-XL
  binding to Bcl-XL by 2D [15N,1H]-HSQC, qualitative: strong binding
[2]
  tolerability / toxicity of treated mice: died

## ABT-737
BP3 cell line
  cytotoxic activity against BP3 cell lines: no cytotoxic activity
